Each molecule was assayed on Oseltamivir-resistant A/Weiss/43 (H1N1) (assay: microbe, parasite or virus in culture). Conditions: Influenza A virus, H1N1, MDCK, 120 h.
Type: cell-based

Compound	EC50 [µM]
O=C1c2c(O)c(=O)ccn2N([C@@H]2c3ccccc3[Se]Cc3c2ccc(F)c3F)[C@@H]2COCCN12 [Compound B-1, (R)-12-((S)-7,8-Difluoro-6,11-Dihydrodibenzo[b,e]Selenepin-11-yl)-7-Hydroxy-3,4,12,12a-Tetrahydro-1H-[1,4]Oxazino[3,4-c]Pyrido[2,1-f][1,2,4]Triazine-6,8-Dione]	0.0011
CP(C)(=O)c1cn2c(c(O)c1=O)C(=O)N1CCOC[C@H]1N2[C@@H]1c2ccccc2SCc2c1ccc(F)c2F [Compound E-1c, (R)-12-((S)-7,8-difluoro-6,11-dihydrodibenzo[b,e]thiepin-11-yl)-9-(dimethylphosphoryl)-7-hydroxy-3,4,12,12a-tetrahydro-1H-[1,4]oxazino[3,4-c]pyrido[2,1-f][1,2,4]triazine-6,8-dione]	0.254
CCP(=O)(CC)c1cn2c(c(O)c1=O)C(=O)N1CCOC[C@H]1N2[C@@H]1c2ccccc2SCc2c1ccc(F)c2F [Compound F-1, (R)-9-(Diethylphosphoryl)-12-((S)-7,8-Difluoro-6,11-Dihydrodibenzo[b,e]-Thiepin-11-yl)-7-Hydroxy-3,4,12,12a-Tetrahydro-1H-[1,4]Oxazino[3,4-c]Pyrido[2,1-f][1,2,4]Triazine-6,8-Dione]	0.881
CCC(CC)O[C@@H]1C=C(C(=O)O)C[C@H](N)[C@H]1NC(C)=O [Oseltamivir acid, reference compound]	> 100
O=C1c2c(O)c(=O)ccn2N([C@@H]2c3ccccc3SCc3c2ccc(F)c3F)[C@@H]2COCCN12 [Baloxavir acid, reference compound]	0.001
